Laboratory results from ChEMBL document CHEMBL1201862, “PubChem BioAssay data set” (2004).
Activity calls are given as the source filed them.

What was measured:
[1] = inhibitors of intracellular T. cruzi replication, confirmation, NIH3T3 host cells, beta-gal luminescence (AID 2044); assay type: functional, cell-based;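 also: intracellular parasites grown in NIH/3T3 mouse fibroblasts as host cells; luminescent beta-galactosidase reporter signal from transgenic T. cruzi replicating inside host cells; inhibitors lower the luminescence signal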
Exodeoxyribonuclease V = molecular target: T1, Exodeoxyribonuclease V (Escherichia coli (strain K12), UniProt P04993+P07648+P08394); experiment: E. coli RecBCD inhibitors, dose response, counter-screen for AddAB inhibitor project, absorbance, V66 E. coli, mutant T4 phage (AID 492957); assay type: functional, cell-based, Escherichia coli str. K-12 substr. MG1655
T1 sequence (P04993 whole entry): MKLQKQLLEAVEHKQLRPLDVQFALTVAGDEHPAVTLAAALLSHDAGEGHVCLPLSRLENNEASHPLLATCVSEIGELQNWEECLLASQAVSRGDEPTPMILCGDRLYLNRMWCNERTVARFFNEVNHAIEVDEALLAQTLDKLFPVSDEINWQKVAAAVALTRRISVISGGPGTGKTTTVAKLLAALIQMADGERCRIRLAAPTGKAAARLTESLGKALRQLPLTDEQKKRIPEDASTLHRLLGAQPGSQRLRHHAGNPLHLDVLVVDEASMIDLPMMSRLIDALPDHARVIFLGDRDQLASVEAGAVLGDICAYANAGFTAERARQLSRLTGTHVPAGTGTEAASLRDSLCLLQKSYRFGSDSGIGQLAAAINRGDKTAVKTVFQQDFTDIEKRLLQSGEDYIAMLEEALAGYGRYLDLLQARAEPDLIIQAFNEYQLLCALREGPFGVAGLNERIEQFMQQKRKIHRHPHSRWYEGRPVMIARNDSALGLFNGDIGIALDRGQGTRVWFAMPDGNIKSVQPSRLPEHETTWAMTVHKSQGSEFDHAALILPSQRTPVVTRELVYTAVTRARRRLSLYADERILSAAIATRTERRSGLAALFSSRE
T1 sequence (P07648 whole entry): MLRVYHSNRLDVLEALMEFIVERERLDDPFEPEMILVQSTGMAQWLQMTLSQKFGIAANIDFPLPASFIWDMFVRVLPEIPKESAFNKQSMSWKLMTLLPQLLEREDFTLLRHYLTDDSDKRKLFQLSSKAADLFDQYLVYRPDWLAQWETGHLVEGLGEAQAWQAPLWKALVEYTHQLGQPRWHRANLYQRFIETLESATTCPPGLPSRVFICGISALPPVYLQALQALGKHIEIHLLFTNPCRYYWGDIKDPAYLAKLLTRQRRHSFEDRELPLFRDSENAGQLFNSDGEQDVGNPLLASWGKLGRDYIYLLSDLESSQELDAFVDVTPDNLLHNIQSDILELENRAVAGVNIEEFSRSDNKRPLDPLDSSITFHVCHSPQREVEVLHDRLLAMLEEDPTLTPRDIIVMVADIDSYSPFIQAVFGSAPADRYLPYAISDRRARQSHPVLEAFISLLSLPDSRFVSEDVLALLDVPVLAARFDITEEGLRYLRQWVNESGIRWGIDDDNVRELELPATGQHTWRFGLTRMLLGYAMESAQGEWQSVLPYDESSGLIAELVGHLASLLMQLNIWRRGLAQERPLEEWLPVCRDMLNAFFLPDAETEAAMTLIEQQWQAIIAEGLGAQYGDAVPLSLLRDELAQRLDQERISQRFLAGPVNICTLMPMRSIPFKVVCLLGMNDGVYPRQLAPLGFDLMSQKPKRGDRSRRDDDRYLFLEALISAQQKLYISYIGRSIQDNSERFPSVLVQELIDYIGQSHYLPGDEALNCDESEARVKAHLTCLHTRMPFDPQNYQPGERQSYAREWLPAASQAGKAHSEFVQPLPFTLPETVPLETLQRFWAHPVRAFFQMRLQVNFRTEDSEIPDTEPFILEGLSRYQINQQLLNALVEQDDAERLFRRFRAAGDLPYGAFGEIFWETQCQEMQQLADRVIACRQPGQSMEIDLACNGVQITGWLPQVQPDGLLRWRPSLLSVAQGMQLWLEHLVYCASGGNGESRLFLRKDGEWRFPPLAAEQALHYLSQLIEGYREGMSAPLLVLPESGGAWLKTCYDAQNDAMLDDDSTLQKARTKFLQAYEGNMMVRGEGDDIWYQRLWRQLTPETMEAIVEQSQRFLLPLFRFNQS
T1 sequence (P08394 whole entry): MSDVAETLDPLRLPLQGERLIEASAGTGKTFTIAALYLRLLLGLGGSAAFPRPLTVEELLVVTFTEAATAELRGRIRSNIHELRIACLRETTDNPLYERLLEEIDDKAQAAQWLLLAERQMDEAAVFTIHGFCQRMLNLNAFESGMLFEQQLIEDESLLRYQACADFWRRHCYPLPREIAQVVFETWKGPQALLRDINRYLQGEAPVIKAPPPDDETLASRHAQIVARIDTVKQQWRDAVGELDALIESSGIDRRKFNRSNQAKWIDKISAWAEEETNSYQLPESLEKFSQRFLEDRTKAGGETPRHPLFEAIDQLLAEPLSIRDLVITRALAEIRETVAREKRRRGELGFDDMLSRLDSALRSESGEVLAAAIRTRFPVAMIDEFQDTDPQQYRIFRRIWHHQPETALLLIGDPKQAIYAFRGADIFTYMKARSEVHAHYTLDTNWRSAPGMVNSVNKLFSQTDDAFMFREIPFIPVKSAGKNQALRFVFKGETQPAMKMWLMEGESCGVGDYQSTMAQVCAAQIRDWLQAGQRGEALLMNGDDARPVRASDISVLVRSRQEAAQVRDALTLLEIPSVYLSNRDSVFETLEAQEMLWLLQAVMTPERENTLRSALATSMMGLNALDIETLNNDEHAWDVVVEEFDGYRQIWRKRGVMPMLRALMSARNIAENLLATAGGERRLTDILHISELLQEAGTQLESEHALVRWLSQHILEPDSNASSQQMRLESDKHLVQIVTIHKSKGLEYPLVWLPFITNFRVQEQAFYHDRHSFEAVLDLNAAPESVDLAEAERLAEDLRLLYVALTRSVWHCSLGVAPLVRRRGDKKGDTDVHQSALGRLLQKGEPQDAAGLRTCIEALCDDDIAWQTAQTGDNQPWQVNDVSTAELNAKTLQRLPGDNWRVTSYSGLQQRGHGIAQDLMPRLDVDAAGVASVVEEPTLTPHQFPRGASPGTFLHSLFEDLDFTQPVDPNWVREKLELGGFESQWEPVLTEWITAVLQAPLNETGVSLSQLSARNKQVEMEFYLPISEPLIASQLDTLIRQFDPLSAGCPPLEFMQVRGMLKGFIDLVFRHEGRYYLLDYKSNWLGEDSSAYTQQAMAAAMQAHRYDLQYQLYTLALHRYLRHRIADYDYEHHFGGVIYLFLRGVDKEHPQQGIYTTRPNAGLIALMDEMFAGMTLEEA

INS1 = experiment: beta cell apoptosis inhibitors, cytokine rescue, dose response, luminescence, retest (AID 449756); assay type: functional, cell-based; settings: Rattus norvegicus;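 also: cell death triggered by IL-1 beta plus TNF-alpha plus IFN-gamma mixture; protective hits raise ATP signal compared with cytokine alone wells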

Row | Structure (SMILES) | EC50 [1] | IC50 (Exodeoxyribonuclease V) | AC50 (INS1)
1 | CCCCC(=O)NC(c1ccco1)c1cc(Cl)c2cccnc2c1O (configuration not stated) | 1.91 µM (active) | > 119 µM (inactive) | 2.74 µM (active)
2 | CCCCC(=O)NC(c1ccc(Cl)cc1)c1ccc2cccnc2c1O (configuration not stated) | 0.268 µM (active) | > 119 µM (inactive) | 0.476 µM (active)
3 | O=C(N/N=C/c1ccccc1O)/C(O)=C\C1=NC2(CCCC2)Cc2ccccc21 | – | > 119 µM (inactive) | –
